# In US11117926B2, “Cholane derivatives for use in the treatment and/or prevention of FXR and TGR5/GPBAR1 mediated diseases” (BAR PHARMACEUTICALS S.R.L., priority 2014, dated 2021):
# What was measured:
# [1] = patients suffering from primary biliary cirrhosis (PBC), clinical trials; cited from earlier work
# [2] = target: T1, FXR (Homo sapiens, UniProt Q96RI1); test: FXR mediated transactivation (luciferase reporter) in transfected HepG2 cells; format: cell-based; conditions: each compound at 10 microM, transactivation activity of CDCA on FXR = 100%
# T1 construct: expressed in transfected cells; host or cells: HepG2
# T1 sequence (Q96RI1 1-486): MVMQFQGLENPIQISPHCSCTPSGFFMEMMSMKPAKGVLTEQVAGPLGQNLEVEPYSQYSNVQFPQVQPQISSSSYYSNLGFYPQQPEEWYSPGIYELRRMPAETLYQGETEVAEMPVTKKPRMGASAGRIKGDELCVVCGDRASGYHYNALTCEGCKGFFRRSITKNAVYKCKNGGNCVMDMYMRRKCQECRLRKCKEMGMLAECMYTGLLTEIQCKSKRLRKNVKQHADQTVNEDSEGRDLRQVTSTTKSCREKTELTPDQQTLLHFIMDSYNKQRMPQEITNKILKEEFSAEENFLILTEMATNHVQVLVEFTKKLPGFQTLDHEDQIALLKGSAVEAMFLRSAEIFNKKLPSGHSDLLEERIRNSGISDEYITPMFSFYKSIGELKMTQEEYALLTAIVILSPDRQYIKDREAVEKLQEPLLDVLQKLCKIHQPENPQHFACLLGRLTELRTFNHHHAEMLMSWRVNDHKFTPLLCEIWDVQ
# T1 sequence (P19793 1-462 partner): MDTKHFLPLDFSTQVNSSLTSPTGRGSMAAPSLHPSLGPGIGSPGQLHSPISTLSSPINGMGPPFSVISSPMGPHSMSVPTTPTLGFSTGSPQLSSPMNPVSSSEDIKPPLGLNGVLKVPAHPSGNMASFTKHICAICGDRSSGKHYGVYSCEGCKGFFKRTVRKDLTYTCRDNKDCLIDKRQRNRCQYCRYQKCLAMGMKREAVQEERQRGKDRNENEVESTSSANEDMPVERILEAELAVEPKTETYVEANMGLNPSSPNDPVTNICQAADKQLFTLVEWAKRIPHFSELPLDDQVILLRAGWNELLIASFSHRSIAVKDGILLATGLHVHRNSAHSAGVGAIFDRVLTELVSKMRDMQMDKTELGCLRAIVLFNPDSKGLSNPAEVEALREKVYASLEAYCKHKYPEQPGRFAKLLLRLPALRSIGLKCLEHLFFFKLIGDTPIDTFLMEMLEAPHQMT
# Description: (§1) Each compound was tested at the concentration of 10 microM and transactivation activity of CDCA on FXR and TLCA on CRE (i.e. TGR5/GPBAR1) was considered equal to 100%.
# (§2) Biological Activities. Activity of selected compounds was tested in vitro using a whole cell model transfected with a reporter genes to establish selectivity of compounds shown in table 1 toward FXR and TGR5/GPBAR1 in comparison with chenodeoxycholic acid (CDCA) and TLCA. CDCA is a primary bile acid that functions as an endogenous ligand for FXR, while TLCA is a physiological ligand for TGR5/GPBAR1. In this assay, HepG2 cells (a liver-derived cell line) were cultured at 37° C. in minimum essential medium with Earl's salts containing 10% fetal bovine serum (FBS), 1% L-glutamine, and 1% penicillin/streptomycin. […] The transfection experiments were performed using Fugene HD according to manufactured specifications. Cells were plated in a 24-well plate at 5×10^4 cells/well. For FXR mediated transactivation, HepG2 cells were transfected with 100 ng of pSG5-FXR, 100 ng of pSG5-RXR, 100 ng of pGL4.70 a vector encoding the human Renilla gene and 250 ng of the reporter vector p(hsp27)-TK-LUC containing the FXR response element IR1 cloned from the promoter of heat shock protein 27 (hsp27).
# (§3) At 24 h post-transfection, cells were stimulated for 18 h with 10 μM TLCA as a control agent or putative GPBAR1 agonists as the same concentration. After treatments, cells were lysed in 100 μL of lysis buffer (25 mM Tris-phosphate, pH 7.8; 2 mM DTT; 10% glycerol; 1% Triton X-100), and 20 μL of cellular lysate was assayed for luciferase activity using the luciferase assay system. Luminescence was measured using Glomax 20/20 luminometer. Luciferase activities were normalized against Renilla activities. Antagonism against FXR of GPBAR1/TGR5 was measured as percent of activity in transactivation assay suing activity of TLCA as example of agonism.
# [3] = target: T2, human GPBAR1 (Homo sapiens, UniProt Q8TDU6); test: GPBAR1 mediated transactivation (CRE luciferase reporter) in transfected HEK-293T cells; format: cell-based; conditions: each compound at 10 microM, transactivation activity of TLCA on CRE = 100%
# T2 construct: expressed in transfected cells; host or cells: HEK-293T
# T2 sequence (Q8TDU6 1-330): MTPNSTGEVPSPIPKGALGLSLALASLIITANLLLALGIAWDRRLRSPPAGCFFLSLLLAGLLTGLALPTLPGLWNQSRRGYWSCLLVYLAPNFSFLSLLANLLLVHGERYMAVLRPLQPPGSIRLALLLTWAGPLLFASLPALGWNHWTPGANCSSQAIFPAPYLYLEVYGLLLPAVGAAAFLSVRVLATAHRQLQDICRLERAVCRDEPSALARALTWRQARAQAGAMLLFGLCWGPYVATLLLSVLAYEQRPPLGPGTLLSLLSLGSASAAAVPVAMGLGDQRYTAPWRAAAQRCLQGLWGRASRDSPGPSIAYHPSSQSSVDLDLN
# Description: as §1, §2, §3
# [4] = test system: sea lamprey (Petromyzon marinus); conditions: cited from earlier work
# [5] = not given; remark: listed apart in the source
# [6] = target: T3, intestinal bile acid carrier (Homo sapiens, UniProt Q12908); conditions: CaCo-2 cells; cited from earlier work
# T3 construct: host or cells: CaCo-2
# T3 sequence (Q12908 1-348): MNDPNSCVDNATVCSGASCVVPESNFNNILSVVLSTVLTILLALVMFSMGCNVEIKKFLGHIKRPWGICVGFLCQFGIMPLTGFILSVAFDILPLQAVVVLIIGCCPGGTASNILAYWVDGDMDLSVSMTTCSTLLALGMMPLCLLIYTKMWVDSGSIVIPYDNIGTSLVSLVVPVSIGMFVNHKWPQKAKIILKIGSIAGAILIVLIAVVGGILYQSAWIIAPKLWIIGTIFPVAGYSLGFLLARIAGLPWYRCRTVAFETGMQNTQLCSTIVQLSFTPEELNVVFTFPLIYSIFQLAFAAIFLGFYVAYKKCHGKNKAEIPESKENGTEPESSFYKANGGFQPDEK
# [7] = ANIT or 17α-ethynylestradiol cholestasis models
Structure (SMILES),FXR (% of activity in comparison to 10 μM CDCA) [2] [%],GPBAR1 (% of activity in comparison to 10 μM TLCA) [3] [%],also measured
CC[C@H]1[C@@H](O)[C@@H]2[C@H](CC[C@]3(C)[C@@H]([C@H](C)CCC(=O)O)CC[C@@H]23)[C@@]2(C)CC[C@@H](O)C[C@@H]12 [obeticholic acid],,,patients with severe itching [1]: approximately 80%
C[C@H](CCCOS(=O)(=O)O)[C@H]1CCC2C3CC[C@@H]4CCCC[C@]4(C)C3CC[C@@]21C (stereo partly shown) [BAR407],177.1 ± 3.5,37.3 ± 2.5,olfactory response [4]: did not to elicit an olfactory response
"CC[C@H]1[C@@H](O)[C@@H]2[C@H](CC[C@]3(C)[C@@H]([C@H](C)CCCOS(=O)(=O)[O-])CC[C@@H]23)[C@@]2(C)CCCC[C@@H]12.[Na+] [BAR701solf, 6α-ethyl-7α-hydroxy-5β-cholan-24-yl 24-sodium sulfate]",229 ± 2.0,63.5 ± 0.5,
"CC[C@H]1[C@@H](O)C2C3CC[C@H]([C@H](C)CCO)[C@@]3(C)CCC2[C@@]2(C)CC[C@@H](O)C[C@@H]12 (stereo partly drawn) [BAR502, 6α-ethyl-3α, 7α-dihydroxy-24-nor-5β-cholan-23-ol]",263.0 ± 32.0,74.5 ± 6.4,"bile acid pool (17α-ethynylestradiol model): reshapes bile acid pool; cholestasis (17α-ethynylestradiol model): attenuates cholestasis; itching (mouse, in vivo): without inducing itching; liver expression of canonical FXR target genes including OSTα, BSEP, SHP and MDR1 [5, 7]: robustly modulates; serum alkaline phosphatase levels [5, 7]: attenuates; survival [5, 7]: increases survival; itching (pruritus) ([5]; mouse, in vivo): does not induce itching"
"CC=C1[C@H](O)[C@@H]2[C@H](CC[C@]3(C)[C@@H]([C@H](C)CCCO)CC[C@@H]23)[C@@]2(C)CC[C@@H](O)C[C@@H]12 [BAR503, 6-ethylidene-3α,7β-dihydroxy-5β-cholan-24-ol]",68.8 ± 26.6,59.8 ± 0.1,
"C[C@H](CCCCCO)[C@H]1CCC2C3C(CC[C@@]21C)[C@@]1(C)CC[C@@H](O)C[C@H]1C[C@@H]3O (stereo partly drawn) [BAR304, 25, 26-bishomo-5β-cholan-3α, 7β, 26-triol]",0,55.1 ± 12.5,
"C[C@H](CCOS(=O)(=O)[O-])[C@H]1CC[C@H]2[C@@H]3[C@@H](O)C[C@@H]4C[C@H](O)CC[C@]4(C)[C@H]3CC[C@]12C.[Na+] [BAR106, 3α,7β-dihydroxy-24-nor-5β-cholan-23-yl-23-sodium sulfate]",0,19.0 ± 1.3,
C[C@H](CC(=O)O)[C@H]1CCC2C3CC[C@@H]4CCCC[C@]4(C)C3CC[C@@]21C (stereo partly shown) [BARn406],27.0 ± 1.5,4.8 ± 1.8,ability to inhibit taurocholic acid transport [6]: undetectable
"CC[C@H]1[C@H](O)[C@@H]2[C@H](CC[C@]3(C)[C@@H]([C@H](C)CCCO)CC[C@@H]23)[C@@]2(C)CCCC[C@@H]12 [BAR703, 6α-ethyl-7β-hydroxy-5β-cholan-24-ol]",8.6 ± 0.8,47.7 ± 1.0,
"CC[C@H]1[C@@H](O)C2C3CC[C@H]([C@H](C)CCCCCO)[C@@]3(C)CCC2[C@@]2(C)CC[C@@H](O)C[C@@H]12 (stereo partly drawn) [BAR803, 6α-ethyl-3α, 7α-dihydroxy-25, 26-bishomo-5β-cholan-26-ol]",122.5 ± 5.5,80.5 ± 5.0,
"CC[C@@H]1[C@H](O)C2C3CC[C@H]([C@H](C)CCO)[C@@]3(C)CCC2[C@@]2(C)CC[C@@H](O)C[C@@H]12 (stereo partly drawn) [BARn501, 6β-ethyl-3α, 7β-dihydroxy-24-nor-5β-cholan-23-ol]",8.5 ± 1.4,83.1 ± 7.4,
"CC[C@H]1[C@@H](O)C2C3CC[C@H]([C@H](C)CC(=O)O)[C@@]3(C)CCC2[C@@]2(C)CC[C@H](O)C[C@@H]12 (stereo partly drawn) [BARn710, 6α-ethyl-3β,7α-dihydroxy-24-nor-5β-cholan-23-oic acid]",142 ± 1.0,75 ± 8.0,
"CC[C@H]1[C@@H](O)[C@@H]2[C@H](CC[C@]3(C)[C@@H]([C@H](C)CCC(=O)O)CC[C@@H]23)[C@@]2(C)CCCC[C@@H]12 [BAR704, 6α-ethyl-7α-hydroxy-5β-cholan-24-oic acid]",220.5 ± 37.5,27.9 ± 6.3,
